Experimental findings from US8252945B2, “Protective agent for retinal neuronal cell comprising indazole derivative as active ingredient” (UBE Industries, Ltd., priority 2005, dated 2012) are described below.

Broadly, the melting point is the temperature, or range, at which the solid turns liquid. `CC(C)(N)c1ccc(-c2ccc3[nH]ncc3c2[N+](=O)[O-])cc1.Cl`: the melting point is 255 to 261 °C (dec.). `CC(C)(N)c1ccc(-c2ccc3[nH]ncc3c2C#N)cc1.Cl` displayed a melting point of 270 to 272 °C. Regarding `CN(C)/C=C/C(=O)c1c(-c2ccc(C(C)(C)NC(=O)OC(C)(C)C)cc2)ccc2nn(C3CCCCO3)cc12` (centres unmarked) [Compound 14, 5-[4-(1-tert-butoxycarbonylamino-1-methylethyl)phenyl]-4-(3-dimethylaminoacryloyl)-2-(tetrahydropyran-2-yl)-2H-indazole], the melting point lay within 191 to 194 °C.

Turning to `CC(C)(N)c1ccc(-c2ccc3[nH]ncc3c2C2CC2)nc1.Cl.Cl.Cl`, the melting point is 209 to 213 °C (dec.). Turning to `COc1c(-c2ccc(C(C)(C)N)cc2)ccc2[nH]ncc12.Cl.Cl`, the melting point was 258 to 261 °C (dec.). As for `CN(C)c1c(-c2ccc(C(C)(C)N)cc2)ccc2[nH]ncc12.Cl.Cl.Cl`, the melting point was 219 to 224 °C (dec.). As to `CC(C)(N)c1ccc(-c2ccc3[nH]ncc3c2-c2ccno2)cc1.Cl.Cl`, the melting point is 256 to 258 °C (dec.). For the molecule `CC(C)(N)c1ccc(-c2ccc3[nH]ncc3c2OC(F)F)nc1.Cl.Cl.Cl`, the melting point was 170 to 173 °C.
